Data reported in patent EP0286926A2, “Semi-synthetic rhodomycins, method for their preparation and their use as cytostatics” (BEHRINGWERKE Aktiengesellschaft, priority 1987, dated 1988).
≈ marks a conversion by molar mass, not a printed value. Like-named read-outs stand apart in the source and are kept apart here.

Test system: L1210 Leukämiezellen
Experiment: Colony formation of L1210 leukemia cells in soft agar
Format: cell-based, Maus
Conditions: for IC50: Mus musculus; for zytostatische Wirksamkeit: statement in words, compared with Adriamycin
Description: Die zytostatische Wirksamkeit der erfindungsgemäßen Verbindungen wurde anhand von L1210 Leukämiezellen der Maus getestet. Hierzu wurde die Koloniebildung von L1210 Leukämiezellen in Agarplatten herangezogen. Diese Methode dient zum Nachweis des Einflusses der Testsubstanzen auf das Wachstumsverhalten der Zellen nach Inkubation von 1 Stunde oder über mehrere Generationen. Bei einer Zelzykluszeit von 10-12 Stunden werden dabei in der Testzeit von 7 Tagen etwa 14 aufeinanderfolgende Generationen beobachtet. Die erfindungsgemäßen zytostatisch wirksamen Substanzen bewirken in diesem Test eine Reduktion der zu beobachtenden Koloniezahl gegenüber einer unbehandelten Kontrollprobe.
Einzelheiten des Testverfahrens ergeben sich aus der nachfolgenden Verfahrensweise zur Ermittlung der Koloniebildung.
Verfahrensweise zur Ermittlung der Koloniebildung von L1210 Leukämiezellen in Soft-Agar
500 Leukämiezellen pro Platte wurden mit unterschiedlichen Konzentrationen der Testsubstanz 1 Stunde bei 37°C inkubiert. Anschließend wurden die Zellen zweimal mit McCoy5A-Medium gewaschen und schließlich in Petrischalen nach Zugabe von 0,3 % Agar ausgegossen. Kontrollen wurden lediglich mit frischem Medium inkubiert. Anstelle der einstündigen Inkubation wurden in manchen Fällen unterschiedliche Konzentrationen und Testsubstanzen der oberen Agarschicht zugemischt, um so eine kontinuierliche Exposition der Zellen über die gesamte Inkubationszeit zu erreichen. Nach Erstarren des Agars wurden die Platten im Brutschrank 7 Tage bei 37°C inkubiert (5 Vol.-% CO₂, 94 % relative Luftfeuchtigkeit). Anschließend wurde die Zahl der entstandenen Kolonien mit einem Durchmesser von mehr als 60 µm gezählt. Die Ergebnisse wurden angegeben als Koloniezahl in behandelten Agarplatten in Prozent der unbehandelten Kontrolle. Aus der so erhaltenen Dosiswirkungskruve wurde die IC₅₀ als Maß für die Wirksamkeit der Substanz ermittelt. Die Ergebnisse für die hier beschriebenen Verbindungen im Vergleich zu Adriamycin sind in der nachfolgenden Tabelle 1 zusammengefaßt.

[1] = L1210, 168 h, read-out: Dauerinkubation IC50
[2] = L1210, read-out: 1h-Inkubation IC50
[3] = L1210, 168 h, continuous exposure: substance mixed into upper agar layer for the whole 7-day incubation at 37°C, colonies > 60 µm counted, percent of untreated control, read-out: Dauerinkubation IC50
[4] = L1210, 1 h incubation with substance at 37°C, cells washed twice, then plated in 0,3 % agar for 7 days, colonies > 60 µm counted, read-out: 1h-Inkubation IC50
[5] = 1 h incubation with substance at 37°C, cells washed twice, then plated in 0,3 % agar for 7 days, colonies > 60 µm counted
[6] = continuous exposure: substance mixed into upper agar layer for the whole 7-day incubation at 37°C, colonies > 60 µm counted, percent of untreated control

SMILES: COc1cccc2c1C(=O)c1c(O)c3c(c(O)c1C2=O)C[C@@](O)(C(=O)CO)C[C@@H]3O[C@H]1C[C@H](N)[C@H](O)[C@H](C)O1 [Adriamycin, reference compound]
- IC50 [1]: 0.02 µg/mL (≈ 0.0368 µM)
- IC50 [2]: 0.04 µg/mL (≈ 0.0736 µM)

SMILES: CC[C@@]1(O)C[C@H](O)c2c(O)c3c(c(O)c2[C@H]1O[C@H]1C[C@H](NC(=O)C(F)(F)F)[C@@H](OC(=O)c2ccc([N+](=O)[O-])cc2)[C@H](C)O1)C(=O)c1cccc(O)c1C3=O [Beispiel 8, 10-0-(4-0-Paranitrobenzoyl-3-N-trifluor-acetyl-α-L-acosaminyl)-β-rhodomycinon]
- IC50 [3]: > 1 µg/mL
- IC50 [4]: > 1 µg/mL

SMILES: CC[C@@]1(O)C[C@H](O)c2c(O)c3c(c(O)c2[C@H]1O[C@H]1C[C@H](NC(=O)C(F)(F)F)[C@H](OC(=O)c2ccc([N+](=O)[O-])cc2)[C@H](C)O1)C(=O)c1cccc(O)c1C3=O [Beispiel 9, 10-0-(4-0-Paranitrobenzoyl-3-N-trifluoracetyl-α-L-daunosaminyl)-β-rhodomycinon]
- IC50 [3]: 0.6 µg/mL (≈ 0.789 µM)
- IC50 [4]: > 10 µg/mL

SMILES: CC[C@@]1(O)C[C@H](O)c2c(O)c3c(c(O)c2[C@H]1O[C@H]1C[C@H](N)[C@@H](O)[C@H](C)O1)C(=O)c1cccc(O)c1C3=O [Beispiel 10, 10-0-α-L-Acosaminyl-β-rhodomycinon]
- IC50 [3]: 0.9 µg/mL (≈ 1.75 µM)
- IC50 [4]: 6.5 µg/mL (≈ 12.6 µM)

SMILES: CC[C@@]1(O)C[C@H](O)c2c(O)c3c(c(O)c2[C@H]1O[C@H]1C[C@H](N)[C@H](O)[C@H](C)O1)C(=O)c1cccc(O)c1C3=O [Beispiel 11, 10-0-α-L-Daunosaminyl-β-rhodomycinon]
- IC50 [3]: > 1 µg/mL
- IC50 [4]: > 1 µg/mL

SMILES: CC[C@@]1(O)C[C@H](O)c2c(O)c3c(c(O)c2[C@H]1O[C@H]1C[C@H](N(C)C)[C@@H](O)[C@H](C)O1)C(=O)c1cccc(O)c1C3=O [Beispiel 12, 10-0-(3-N,N-Dimethyl-α-L-acosaminyl)-β-rhodomycinon]
- IC50 [3]: 0.5 µg/mL (≈ 0.92 µM)
- IC50 [4]: > 1 µg/mL

SMILES: CC[C@@]1(O)C[C@H](O[C@H]2C[C@H](NC(=O)C(F)(F)F)[C@@H](OC(=O)c3ccc([N+](=O)[O-])cc3)[C@H](C)O2)c2c(O)c3c(c(O)c2[C@H]1OC(=O)C(F)(F)F)C(=O)c1cccc(O)c1C3=O [Beispiel 13, 7-0-(4-0-Paranitrobenzoyl-3-N-trifluoracetyl-α-L-acosaminyl)-10-0-trifluoracetyl-β-rhodomycinon]
- IC50 [3]: 0.03 µg/mL (≈ 0.035 µM)
- IC50 [4]: > 1 µg/mL

SMILES: CC[C@@]1(O)C[C@H](O[C@H]2C[C@H](NC(=O)C(F)(F)F)[C@@H](OC(=O)c3ccc([N+](=O)[O-])cc3)[C@H](C)O2)c2c(O)c3c(c(O)c2[C@H]1O)C(=O)c1cccc(O)c1C3=O [Beispiel 14, 7-0-(4-0-Paranitrobenzoyl-3-N-trifluoracetyl-α-L-acosaminyl)-β-rhodomycinon]
- IC50 [3]: 0.024 µg/mL (≈ 0.0316 µM)
- IC50 [4]: > 1 µg/mL

SMILES: CC[C@@]1(O)C[C@H](O[C@H]2C[C@H](N)[C@@H](O)[C@H](C)O2)c2c(O)c3c(c(O)c2[C@H]1O)C(=O)c1cccc(O)c1C3=O [Beispiel 15, 7-0-α-L-Acosaminyl-β-rhodomycinon]
- IC50 [3]: 0.004 µg/mL (≈ 0.00776 µM)
- IC50 [4]: 0.02 µg/mL (≈ 0.0388 µM)
- zytostatische Wirksamkeit: vergleichbar

SMILES: CC[C@@]1(O)C[C@H](O[C@H]2C[C@H](N(C)C)[C@@H](O)[C@H](C)O2)c2c(O)c3c(c(O)c2[C@H]1O)C(=O)c1cccc(O)c1C3=O [Beispiel 16, 7-0-(3-N,N-Dimethyl-α-L-acosaminyl)-β-rhodomycinon]
- IC50 [1]: 0.006 µg/mL (≈ 0.011 µM)
- IC50 [2]: 0.02 µg/mL (≈ 0.0368 µM)
- zytostatische Wirksamkeit: vergleichbar

SMILES: CC[C@@]1(O)C[C@H](O[C@H]2C[C@H](NCC#N)[C@H](O)[C@H](C)O2)c2c(O)c3c(c(O)c2[C@H]1O)C(=O)c1cccc(O)c1C3=O [Beispiel 17, 7-O-(3-N-Cyanomethyl-α-L-daunosaminyl)-β-rhodomycinon]
- IC50 [1]: 0.004 µg/mL (≈ 0.00721 µM)
- IC50 [2]: 0.09 µg/mL (≈ 0.162 µM)

SMILES: CC[C@@]1(O)C[C@H](O[C@H]2C[C@H](NC(=O)C(F)(F)F)[C@H](OC(=O)c3ccc([N+](=O)[O-])cc3)[C@H](C)O2)c2c(O)c3c(c(O)c2[C@H]1OC(=O)C(F)(F)F)C(=O)c1cccc(O)c1C3=O [Beispiel 18, 7-O-(4-O-Paranitrobenzoyl-3-N-trifluoracetyl-α-L-daunosaminyl)-10-O-trifluoracetyl-β-rhodomycinon]
- IC50 [3]: 0.13 µg/mL (≈ 0.152 µM)
- IC50 [4]: > 1 µg/mL

SMILES: CC[C@@]1(O)C[C@H](O[C@H]2C[C@H](NC(=O)C(F)(F)F)[C@H](OC(=O)c3ccc([N+](=O)[O-])cc3)[C@H](C)O2)c2c(O)c3c(c(O)c2[C@H]1O)C(=O)c1cccc(O)c1C3=O [Beispiel 19, 7-O-(4-O-Paranitrobenzoyl-3-N-trifluoracetyl-α-L-daunosaminyl)-β-rhodomycinon]
- IC50 [3]: 0.11 µg/mL (≈ 0.145 µM)
- IC50 [4]: > 1 µg/mL

SMILES: CC[C@@]1(O)C[C@H](O[C@H]2C[C@H](N)[C@H](O)[C@H](C)O2)c2c(O)c3c(c(O)c2[C@H]1OC1CCCCO1)C(=O)c1cccc(O)c1C3=O (stereo partly drawn) [Beispiel 21, 7-O-α-L-Daunosaminyl-10-O-tetrahydropyranyl-β-rhodomycinon]
- 1h-Inkubation IC50 [5]: >1 µg/mL
- Dauerinkubation IC50 [6]: 0.5 µg/mL

SMILES: CC[C@@]1(O)C[C@H](O[C@@H]2O[C@@H](C)[C@@H](OC(C)=O)[C@@H](OC(C)=O)[C@H]2I)c2c(O)c3c(c(O)c2[C@H]1OC1CCCCO1)C(=O)c1cccc(O)c1C3=O (stereo partly drawn) [Beispiel 24, 7-O-(3,4-Di-O-acetyl-2,6-didesoxy-2-iodo-α-L-talopyranosyl)-10-O-tetrahydropyranyl-β-rhodomycinon]
- 1h-Inkubation IC50 [5]: >1 µg/mL
- Dauerinkubation IC50 [6]: >1 µg/mL

SMILES: CC[C@@]1(O)C[C@H](O[C@@H]2O[C@@H](C)[C@H](OC(C)=O)[C@@H](OC(C)=O)[C@H]2I)c2c(O)c3c(c(O)c2[C@H]1OC1CCCCO1)C(=O)c1cccc(O)c1C3=O (stereo partly drawn) [Beispiel 25, 7-O-(3,4-Di-O-acetyl-2,6-didesoxy-2-iodo-α-L-mannopyranosyl)-10-O-tetrahydropyranyl-β-rhodomycinon]
- 1h-Inkubation IC50 [5]: >1 µg/mL
- Dauerinkubation IC50 [6]: >1 µg/mL

SMILES: CC[C@@]1(O)C[C@H](O[C@H]2C[C@H](NC(=O)C(F)(F)F)[C@H](OC(=O)c3ccc([N+](=O)[O-])cc3)[C@H](C)O2)c2c(O)c3c(c(O)c2[C@H]1O[C@@H]1C[C@H](NC(=O)C(F)(F)F)[C@H](OC(=O)c2ccc([N+](=O)[O-])cc2)[C@H](C)O1)C(=O)c1cccc(O)c1C3=O [Beispiel 27, 7,10-Di-O-(4-O-paranitrobenzoyl-3-N-trifluoracetyl-α-L-daunosaminyl)-β-rhodomycinon]
- 1h-Inkubation IC50 [5]: >1 µg/mL
- Dauerinkubation IC50 [6]: >1 µg/mL

SMILES: CC[C@@]1(O)C[C@H](O[C@H]2C[C@H](NC(=O)C(F)(F)F)[C@H](OC(C)=O)[C@H](C)O2)c2c(O)c3c(c(O)c2[C@H]1O[C@H]1C[C@H](NC(=O)C(F)(F)F)[C@H](OC(C)=O)[C@H](C)O1)C(=O)c1cccc(O)c1C3=O [Beispiel 28, 7,10-Di-O-(4-O-acetyl-3-N-trifluoracetyl-α-L-daunosaminyl)-β-rhodomycinon]
- IC50 [3]: > 1 µg/mL
- IC50 [4]: > 1 µg/mL

SMILES: CC[C@@]1(O)C[C@H](O[C@H]2C[C@H](N)[C@H](O)[C@H](C)O2)c2c(O)c3c(c(O)c2[C@H]1O[C@H]1C[C@H](N)[C@H](O)[C@H](C)O1)C(=O)c1cccc(O)c1C3=O [Beispiel 29, 7,10-Di-O-α-L-daunosaminyl-β-rhodomycinon]
- IC50 [3]: > 10 µg/mL
- IC50 [4]: > 1 µg/mL

SMILES: CC[C@@]1(O)C[C@H](O[C@H]2C[C@H](NCC#N)[C@H](O)[C@H](C)O2)c2c(O)c3c(c(O)c2[C@H]1O[C@H]1C[C@H](NCC#N)[C@H](O)[C@H](C)O1)C(=O)c1cccc(O)c1C3=O [Beispiel 30, 7,10-O-Di-(3-N-Cyanomethyl-α-L-daunosaminyl)-β-rhodomycinon]
- IC50 [1]: 0.5 µg/mL (≈ 0.692 µM)
- IC50 [2]: > 1 µg/mL
